Test results reported in the OligoGym collection.
HELM strings list units from the 5' end as sugar, base in round brackets, then linkage (d deoxyribose, r ribose, m 2'-O-methyl, p phosphodiester). Strings are as the collection lists them; they lack the last nucleoside at the 3' end of the tested compound. [moe] = 2'-O-(2-methoxyethyl) (MOE); [sp] = phosphorothioate linkage; [m5C] = 5-methylcytosine

What follows are substances tested against ATXN2 (assay: mouse, dose not given). Details: ASO.

Substance	3 h FOB score [score 0-7]
RNA1{[moe]([m5C])[sp].[moe](T)p.[moe]([m5C])p.[moe](T)p.d([m5C])[sp].d([m5C])[sp].d(A)[sp].d(T)[sp].d(T)[sp].d(A)[sp].d(T)[sp].d(T)[sp].d(T)[sp].d([m5C])[sp].[moe](T)p.[moe](T)p.[moe]([m5C])p.[moe](A)[sp].[moe]([m5C])}$$$$ (last 3' nucleoside missing)	3
RNA1{[moe]([m5C])[sp].[moe](T)p.[moe]([m5C])p.[moe]([m5C])p.[moe](A)[sp].d(T)[sp].d(T)[sp].d(A)[sp].d(T)[sp].d(T)[sp].d(T)[sp].d([m5C])[sp].d(T)[sp].[moe](T)p.[moe]([m5C])p.[moe](A)[sp].[moe]([m5C])}$$$$ (last 3' nucleoside missing)	3.5
RNA1{[moe]([m5C])[sp].[moe](T)p.[moe]([m5C])p.[moe]([m5C])p.[moe](A)p.d(T)[sp].d(T)[sp].d(A)[sp].d(T)[sp].d(T)[sp].d(T)[sp].d([m5C])[sp].d(T)[sp].d(T)[sp].d([m5C])[sp].[moe](A)p.[moe]([m5C])p.[moe](G)[sp].[moe](T)}$$$$ (last 3' nucleoside missing)	1
RNA1{[moe]([m5C])[sp].[moe](T)p.[moe]([m5C])p.[moe]([m5C])p.[moe](T)[sp].d(A)[sp].d(T)[sp].d([m5C])[sp].d(A)[sp].d(T)[sp].d([m5C])[sp].d(A)[sp].d(T)[sp].[moe](T)p.[moe](T)p.[moe](T)[sp].[moe]([m5C])}$$$$ (last 3' nucleoside missing)	0
RNA1{[moe]([m5C])[sp].[moe](T)p.[moe]([m5C])p.[moe]([m5C])p.[moe](T)p.d(A)[sp].d(T)[sp].d([m5C])[sp].d(A)[sp].d(T)[sp].d([m5C])[sp].d(A)[sp].d(T)[sp].d(T)[sp].d(T)[sp].[moe](T)p.[moe]([m5C])p.[moe]([m5C])[sp].[moe](A)}$$$$ (last 3' nucleoside missing)	1
RNA1{[moe]([m5C])[sp].[moe]([m5C])[sp].[moe]([m5C])[sp].[moe](A)[sp].[moe](A)[sp].d(A)[sp].d(G)[sp].d(G)[sp].d(G)[sp].d(T)[sp].d(T)[sp].d(A)[sp].d(A)[sp].d(T)[sp].d(T)[sp].[moe](A)[sp].[moe](G)[sp].[moe](G)[sp].[moe](A)}$$$$ (last 3' nucleoside missing)	7
RNA1{[moe]([m5C])[sp].[moe]([m5C])[sp].[moe]([m5C])[sp].[moe](A)[sp].[moe](T)[sp].d(A)[sp].d([m5C])[sp].d(G)[sp].d([m5C])[sp].d(G)[sp].d(G)[sp].d(T)[sp].d(G)[sp].d(A)[sp].d(A)[sp].[moe](T)[sp].[moe](T)[sp].[moe]([m5C])[sp].[moe](T)}$$$$ (last 3' nucleoside missing)	7
RNA1{[moe]([m5C])[sp].[moe]([m5C])p.[moe](A)p.[moe](G)p.[moe](A)p.d(A)[sp].d(A)[sp].d(T)[sp].d([m5C])[sp].d(T)[sp].d(G)[sp].d(T)[sp].d(A)[sp].d(A)[sp].d(A)[sp].[moe](T)p.[moe](T)p.[moe]([m5C])[sp].[moe](T)}$$$$ (last 3' nucleoside missing)	3
RNA1{[moe]([m5C])[sp].[moe]([m5C])p.[moe](A)p.[moe](T)p.[moe](A)p.d(A)[sp].d(T)[sp].d([m5C])[sp].d(T)[sp].d([m5C])[sp].d(A)[sp].d(T)[sp].d(T)[sp].d([m5C])[sp].d(T)[sp].[moe]([m5C])p.[moe](A)p.[moe](T)[sp].[moe](A)}$$$$ (last 3' nucleoside missing)	2.25
RNA1{[moe]([m5C])[sp].[moe]([m5C])p.[moe](A)p.[moe](T)p.[moe](A)p.d([m5C])[sp].d(G)[sp].d([m5C])[sp].d(G)[sp].d(G)[sp].d(T)[sp].d(G)[sp].d(A)[sp].d(A)[sp].d(T)[sp].[moe](T)p.[moe]([m5C])p.[moe](T)[sp].[moe](G)}$$$$ (last 3' nucleoside missing)	4.5
RNA1{[moe]([m5C])[sp].[moe]([m5C])p.[moe](G)p.[moe](G)p.[moe](A)p.d(T)[sp].d(T)[sp].d(G)[sp].d(T)[sp].d(T)[sp].d(T)[sp].d(T)[sp].d([m5C])[sp].d(T)[sp].d(T)[sp].[moe]([m5C])p.[moe](A)p.[moe](T)[sp].[moe](T)}$$$$ (last 3' nucleoside missing)	1
RNA1{[moe]([m5C])[sp].[moe]([m5C])p.[moe](T)p.[moe](A)p.[moe](T)[sp].d([m5C])[sp].d(A)[sp].d(T)[sp].d([m5C])[sp].d(A)[sp].d(T)[sp].d(T)[sp].d(T)[sp].[moe](T)p.[moe]([m5C])p.[moe]([m5C])[sp].[moe](A)}$$$$ (last 3' nucleoside missing)	1
RNA1{[moe]([m5C])[sp].[moe]([m5C])p.[moe](T)p.[moe](A)p.[moe](T)p.[moe]([m5C])p.d(A)[sp].d(T)[sp].d([m5C])[sp].d(A)[sp].d(T)[sp].d(T)[sp].d(T)[sp].d(T)[sp].d([m5C])[sp].d([m5C])[sp].[moe](A)p.[moe](G)[sp].[moe](G)}$$$$ (last 3' nucleoside missing)	1.25
RNA1{[moe]([m5C])[sp].[moe]([m5C])p.[moe](T)p.[moe](A)p.[moe](T)p.d([m5C])[sp].d(A)[sp].d(T)[sp].d([m5C])[sp].d(A)[sp].d(T)[sp].d(T)[sp].d(T)[sp].d(T)[sp].d([m5C])[sp].[moe]([m5C])p.[moe](A)p.[moe](G)[sp].[moe](G)}$$$$ (last 3' nucleoside missing)	5.5
RNA1{[moe]([m5C])[sp].[moe]([m5C])p.[moe](T)p.[moe](A)p.d(T)[sp].d([m5C])[sp].d(A)[sp].d(T)[sp].d([m5C])[sp].d(A)[sp].d(T)[sp].d(T)[sp].d(T)[sp].d(T)[sp].[moe]([m5C])p.[moe]([m5C])p.[moe](A)p.[moe](G)[sp].[moe](G)}$$$$ (last 3' nucleoside missing)	1.75
RNA1{[moe]([m5C])[sp].[moe]([m5C])p.[moe]([m5C])p.[moe](A)p.[moe](A)p.d(A)[sp].d(G)[sp].d(G)[sp].d(G)[sp].d(T)[sp].d(T)[sp].d(A)[sp].d(A)[sp].d(T)[sp].d(T)[sp].[moe](A)p.[moe](G)p.[moe](G)[sp].[moe](A)}$$$$ (last 3' nucleoside missing)	1
